Assay results published in ChEMBL document CHEMBL4673331 (J Med Chem, 2020).
Values after ≈ are worked out from the molar mass of the structure shown. Active and inactive are the calls of the source. The calls are words filed in the database; no cut-off is given here.

Assays:
[1] = Protein binding in rat plasma; assay type: ADME, cell-free; conditions: read-out: PPB (converted)
[2] = test system: Mus musculus; test: Immunomodulatory activity in human TMD8 cells xenografted po dosed SCID mouse assessed as increase in levels of uncleaved BCL10 in tumor administered twice daily for 2 weeks; assay type: functional, organism-based; conditions: dose mg/kg 10-100, time 2.0 weeks
[3] = Intrinsic clearance in rat liver microsomes; assay type: ADME, Microsome; conditions: read-out: CLH
[4] = Tmax in human TMD8 cells xenografted SCID mouse at 100 mg/kg, po qd by UPLC-MS/MS analysis; assay type: ADME, organism-based; conditions: in vivo
[5] = Volume of distribution at steady state in Sprague-Dawley rat at 1 mg/kg, iv administered as cassette dosing; assay type: ADME, organism-based; conditions: in vivo, read-out: Vdss
[6] = Permeability of compound by PAMPA assay; assay type: ADME
[7] = test system: OCI-Ly3; test: Antiproliferation activity against human OCI-LY3 cells assessed as reduction in cell viability incubated for 14 days by resazurin dye-based fluorescence analysis; assay type: functional; conditions: OCI-Ly3, 336 h
[8] = Thermodynamic solubility of the compound at pH 6.8; assay type: physicochemical; conditions: buffer, read-out: Therm_solubility
[9] = Toxicity in Balb/c mouse assessed as behavioral changes at 10 to 100 mg/kg, po BID administered at 12 hrs interval immunized post 1 hr first treatment; assay type: organism-based; conditions: in vivo, dose 10-100 mg/kg
[10] = test system: Mus musculus; test: Anti-autoimmune disease activity in Balb/c mouse assessed as reduction in anti-DNP induced IgM producing B cells at 30 mg/kg, po administered twice at 12 hrs interval immunized post 1 hr first treatment measured after 8 days by ELISA relative to control; assay type: functional; parameters: scale not given: the % may be the effect or the level left; conditions: time 8 day
[11] = Intrinsic clearance in mouse liver microsome; assay type: ADME; conditions: liver microsomes, read-out: CLH
[12] = Drug concentration in Balb/c mouse blood at 30 mg/kg, po BID by LC-MS/MS analysis; assay type: ADME, organism-based; conditions: in vivo, read-out: Drug uptake
[13] = target: T1, Mucosa-associated lymphoid tissue lymphoma translocation protein 1 (Homo sapiens, UniProt Q9UDY8); test: Allosteric inhibition of human wild-type […] MALT1 (329 to 824 residues) protease activity using Ac-Leu-Arg-Ser-Arg Rh110-dPro as substrate preincubated for 60 mins followed by substrate addition and measured after 60 mins by fluorescence assay
T1 sequence (Q9UDY8 whole entry): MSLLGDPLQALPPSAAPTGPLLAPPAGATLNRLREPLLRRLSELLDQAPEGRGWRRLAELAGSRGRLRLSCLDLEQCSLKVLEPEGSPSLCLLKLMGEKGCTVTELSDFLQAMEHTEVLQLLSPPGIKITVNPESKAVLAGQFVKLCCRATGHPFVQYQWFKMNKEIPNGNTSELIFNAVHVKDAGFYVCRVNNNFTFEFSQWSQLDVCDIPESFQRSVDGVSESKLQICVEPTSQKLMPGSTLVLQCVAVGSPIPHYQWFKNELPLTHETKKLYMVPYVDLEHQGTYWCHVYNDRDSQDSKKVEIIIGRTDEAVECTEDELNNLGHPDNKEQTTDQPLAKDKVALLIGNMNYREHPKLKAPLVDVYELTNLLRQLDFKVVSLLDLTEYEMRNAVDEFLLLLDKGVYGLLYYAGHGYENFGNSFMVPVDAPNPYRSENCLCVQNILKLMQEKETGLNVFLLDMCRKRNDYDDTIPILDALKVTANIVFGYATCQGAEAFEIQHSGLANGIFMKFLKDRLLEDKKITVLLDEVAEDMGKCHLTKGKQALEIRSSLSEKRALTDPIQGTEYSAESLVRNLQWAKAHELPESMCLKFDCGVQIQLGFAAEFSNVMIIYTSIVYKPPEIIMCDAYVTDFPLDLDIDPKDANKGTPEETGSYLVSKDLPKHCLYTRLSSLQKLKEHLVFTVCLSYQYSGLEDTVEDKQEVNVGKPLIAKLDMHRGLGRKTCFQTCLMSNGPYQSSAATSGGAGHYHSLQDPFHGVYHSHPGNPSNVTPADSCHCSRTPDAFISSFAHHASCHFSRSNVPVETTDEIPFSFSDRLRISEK

[14] = Dose normalized Cmax in Balb/c mouse at 3 mg/kg, po administered as cassette dosing; assay type: ADME, organism-based; conditions: in vivo
[15] = test system: BMDM; test: Cytotoxicity against mouse Bone marrow-derived macrophage cells assessed as reduction in cell viability by [3H]-thymidine incorporation assay; assay type: cell-based
[16] = test system: OCI-Ly3; test: Antiproliferative activity against human OCI-LY3 cells assessed as assessed as reduction in colony formation incubated for 14 days by soft-agar assay; assay type: functional, cell-based; conditions: dose 19.5-10000 nM, time 14.0 day
[17] = test system: Mus musculus; test: Immunomodulatory activity in human TMD8 cells xenografted SCID mouse assessed as increase in levels of uncleaved BCL10 in tumor at 100 mg/kg, po; assay type: functional, organism-based
[18] = Drug concentration in Balb/c mouse blood at 100 mg/kg, po BID by LC-MS/MS analysis; assay type: ADME, organism-based; conditions: in vivo, read-out: Drug uptake
[19] = test system: BJAB; test: Antiproliferative activity against human BJAB cells assessed as assessed as reduction in colony formation at 19.5 to 10000 nM incubated for 14 days by soft-agar assay; assay type: functional, cell-based; conditions: dose 19.5-10000 nM, time 14.0 day
[20] = Oral bioavailability in Balb/c mouse at 3 mg/kg administered as cassette dosing; assay type: ADME, organism-based; conditions: in vivo
[21] = target: T2, Mucosa-associated lymphoid tissue lymphoma translocation protein 1 (Homo sapiens) (UniProt Q9UDY8); test: Allosteric inhibition of MALT1 protease activity in human OCI-LY3 cells assessed as accumulation of uncleaved substrate RELB incubated for 24 hrs by Western blot analysis; assay type: cell-based; conditions: OCILY3, filed as negative allosteric modulator, dose 50-5000 nM
T2 sequence (whole entry): T1 sequence (Q9UDY8 whole entry)

[22] = Dose normalized Cmax in Sprague-Dawley rat at 3 mg/kg, po administered as cassette dosing; assay type: ADME, organism-based; conditions: in vivo

fraction unbound [1]: 0.013
microsomal CLint [3]: 42 µL/min/mg
Tmax [4]: 2 h
Vd [5]: 9.4 L/kg
log(permeability) [6]: -4.2
IC50 [7]: > 10 µM
solubility thermodynamic [8]: 4 µg/mL (≈ 8.51 µM)
microsomal CLint [11]: 82 µL/min/mg
concentration [12]: 9.3 µM
IC50 [13]: 0.009 µM
Cmax/dose [14]: 0.549 µM
concentration [18]: 23.6 µM
bioavailability [20]: 99%
inhibition [21]: Dose-dependent effect
Cmax/dose [22]: 0.046 µM
Compound: C[C@H]1COC[C@H](C)N1c1c(NC(=O)Nc2ccnc(C(F)(F)F)c2)cnc2cc(Cl)nn12
Activity [2]: Dose-dependent effect
Activity [9]: Non-Toxic
Activity [10]: 25%
IC50 [15]: > 10 µM
Activity [16]: Dose-dependent effect
Activity [17]: Active
Activity [19]: inactive
